# Data: ChEMBL document CHEMBL1201862, “PubChem BioAssay data set” (2004)
#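 Cultured in 96-well plates, cells were exposed to test compound for 48 hours across five concentrations. GI50 marks 50% less growth.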 The source made the active and inactive calls. Cut-off read from the data, not from the text of the source: active = GI50 up to about 1.1 µM and inactive = higher.
# How the values were obtained:
# Assay in all cases: DTP human tumour cell line panel, 48 h
# OVCAR-3 = test system: OVCAR-3
# Malme-3M = test system: Malme-3M
# TK-10 = test system: TK-10
# RXF 631 = test system: RXF 631
# ACHN = test system: ACHN
# DMS-273 = test system: DMS-273
# HOP-18 = test system: HOP-18
# SNB-75 = test system: SNB-75
# NCI-H226 = test system: NCI-H226
# NCI-H522 = test system: NCI-H522
# LOX IMVI = test system: LOX IMVI
# HL-60 = test system: HL-60
# 786-0 = test system: 786-0
# MOLT-4 = test system: MOLT-4
# SK-MEL-5 = test system: SK-MEL-5
# CAKI-1 = test system: CAKI-1
# HCT-116 = test system: HCT-116
# UACC-62 = test system: UACC-62
# SK-OV-3 = test system: SK-OV-3
# NCI-H23 = test system: NCI-H23
# A549 = test system: A549
# DLD-1 = test system: DLD-1
# KM-20L2 = test system: KM-20L2
# HOP-92 = test system: HOP-92
# DMS-114 = test system: DMS-114
# SW-620 = test system: SW-620
# M14 = test system: M14
# HT-29 = test system: HT-29
# UACC-257 = test system: UACC-257
# A498 = test system: A498
# OVCAR-5 = test system: OVCAR-5
# SK-MEL-28 = test system: SK-MEL-28
# CCRF-CEM = test system: CCRF-CEM
# IGROV-1 = test system: IGROV-1
# LXFL 529 = test system: LXFL 529
# EKVX = test system: EKVX
# HCT-15 = test system: HCT-15
# KM12 = test system: KM12
# UO-31 = test system: UO-31
# SF-539 = test system: SF-539
# K562 = test system: K562
# M19-MEL = test system: M19-MEL
# OVCAR-8 = test system: OVCAR-8
# HOP-62 = test system: HOP-62
# SF-295 = test system: SF-295
# SK-MEL-2 = test system: SK-MEL-2
# SNB-19 = test system: SNB-19
# OVCAR-4 = test system: OVCAR-4
# SNB-78 = test system: SNB-78
# HCC 2998 = test system: HCC 2998
# RPMI-8226 = test system: RPMI-8226
# SF-268 = test system: SF-268
# NCI-H460 = test system: NCI-H460
# COLO 205 = test system: COLO 205
# U-251 = test system: U-251
# RXF 393 = test system: RXF 393
# SN12C = test system: SN12C
structure (smiles),measurement,setting,value
CC(C)(C)C1=CC(=C(P(=O)(O)O)P(=O)(O)O)C=C(C(C)(C)C)C1=O,GI50,OVCAR-3,> 50 µM (inactive)
same,GI50,Malme-3M,> 50 µM (inactive)
same,GI50,TK-10,> 50 µM (inactive)
same,GI50,RXF 631,> 50 µM (inactive)
same,GI50,ACHN,> 50 µM (inactive)
same,GI50,DMS-273,> 50 µM (inactive)
same,GI50,HOP-18,> 50 µM (inactive)
same,GI50,SNB-75,> 50 µM (inactive)
same,GI50,NCI-H226,> 50 µM (inactive)
same,GI50,NCI-H522,> 50 µM (inactive)
same,GI50,LOX IMVI,> 50 µM (inactive)
same,GI50,HL-60,> 50 µM (inactive)
same,GI50,786-0,> 50 µM (inactive)
same,GI50,MOLT-4,> 50 µM (inactive)
same,GI50,SK-MEL-5,> 50 µM (inactive)
same,GI50,CAKI-1,> 50 µM (inactive)
same,GI50,HCT-116,> 50 µM (inactive)
same,GI50,UACC-62,> 50 µM (inactive)
same,GI50,SK-OV-3,> 50 µM (inactive)
same,GI50,NCI-H23,> 50 µM (inactive)
same,GI50,A549,> 50 µM (inactive)
same,GI50,DLD-1,> 50 µM (inactive)
same,GI50,KM-20L2,> 50 µM (inactive)
same,GI50,HOP-92,> 50 µM (inactive)
same,GI50,DMS-114,> 50 µM (inactive)
same,GI50,SW-620,> 50 µM (inactive)
same,GI50,M14,> 50 µM (inactive)
same,GI50,HT-29,> 50 µM (inactive)
same,GI50,UACC-257,> 50 µM (inactive)
same,GI50,A498,> 50 µM (inactive)
same,GI50,OVCAR-5,> 50 µM (inactive)
same,GI50,SK-MEL-28,> 50 µM (inactive)
same,GI50,CCRF-CEM,> 50 µM (inactive)
same,GI50,IGROV-1,> 50 µM (inactive)
same,GI50,LXFL 529,> 50 µM (inactive)
same,GI50,EKVX,> 50 µM (inactive)
same,GI50,HCT-15,> 50 µM
same,GI50,KM12,> 50 µM (inactive)
same,GI50,UO-31,> 50 µM (inactive)
same,GI50,SF-539,> 50 µM (inactive)
same,GI50,K562,> 50 µM (inactive)
same,GI50,M19-MEL,> 50 µM (inactive)
same,GI50,OVCAR-8,> 50 µM (inactive)
same,GI50,HOP-62,> 50 µM (inactive)
same,GI50,SF-295,> 50 µM (inactive)
same,GI50,SK-MEL-2,> 50 µM (inactive)
same,GI50,SNB-19,> 50 µM (inactive)
same,GI50,OVCAR-4,> 50 µM (inactive)
same,GI50,SNB-78,> 50 µM (inactive)
same,GI50,HCC 2998,> 50 µM (inactive)
same,GI50,RPMI-8226,> 50 µM (inactive)
same,GI50,SF-268,> 50 µM (inactive)
same,GI50,NCI-H460,> 50 µM (inactive)
CC/C(=C(\c1ccccc1)c1ccc(OCC[N+](C)(C)C)cc1)c1ccccc1 [TAMOXIFEN METHYL IODIDE],GI50,OVCAR-3,4.76 µM (inactive)
same,GI50,Malme-3M,12.8 µM (inactive)
same,GI50,RXF 631,19.6 µM (inactive)
same,GI50,ACHN,17.5 µM (inactive)
same,GI50,COLO 205,5.31 µM (inactive)
same,GI50,DMS-273,6.4 µM (inactive)
same,GI50,HOP-18,13.1 µM (inactive)
same,GI50,SNB-75,8.85 µM (inactive)
same,GI50,NCI-H226,10.2 µM (inactive)
same,GI50,NCI-H522,4.99 µM (inactive)
same,GI50,LOX IMVI,11.3 µM (inactive)
same,GI50,HL-60,2.52 µM (inactive)
same,GI50,786-0,13.7 µM (inactive)
same,GI50,MOLT-4,17.7 µM (inactive)
same,GI50,SK-MEL-5,4.59 µM (inactive)
same,GI50,CAKI-1,17.5 µM (inactive)
same,GI50,HCT-116,17.5 µM (inactive)
same,GI50,U-251,13.4 µM (inactive)
same,GI50,UACC-62,11 µM (inactive)
same,GI50,SK-OV-3,17.5 µM (inactive)
same,GI50,A549,18.7 µM (inactive)
same,GI50,DLD-1,15.6 µM (inactive)
same,GI50,KM-20L2,15.7 µM (inactive)
same,GI50,RXF 393,17.1 µM (inactive)
same,GI50,DMS-114,9.12 µM (inactive)
same,GI50,SN12C,9.16 µM (inactive)
same,GI50,SW-620,16 µM (inactive)
same,GI50,M14,14.7 µM (inactive)
same,GI50,HT-29,14.6 µM (inactive)
same,GI50,UACC-257,6.75 µM (inactive)
same,GI50,A498,19 µM (inactive)
same,GI50,SK-MEL-28,8.59 µM (inactive)
same,GI50,CCRF-CEM,11.5 µM (inactive)
same,GI50,IGROV-1,8.81 µM (inactive)
same,GI50,LXFL 529,10 µM (inactive)
same,GI50,EKVX,15.6 µM (inactive)
same,GI50,HCT-15,17.7 µM
same,GI50,KM12,13.3 µM (inactive)
same,GI50,UO-31,21.1 µM (inactive)
same,GI50,SF-539,21.6 µM (inactive)
same,GI50,K562,5.65 µM (inactive)
same,GI50,M19-MEL,11.6 µM (inactive)
same,GI50,OVCAR-8,15.3 µM (inactive)
same,GI50,HOP-62,32.4 µM (inactive)
same,GI50,SF-295,16.9 µM (inactive)
same,GI50,SK-MEL-2,13.8 µM (inactive)
same,GI50,SNB-19,17.4 µM (inactive)
same,GI50,OVCAR-4,13 µM (inactive)
same,GI50,SNB-78,12.2 µM (inactive)
same,GI50,HCC 2998,17.1 µM (inactive)
same,GI50,RPMI-8226,9.29 µM (inactive)
same,GI50,SF-268,15.3 µM (inactive)
same,GI50,NCI-H460,17.1 µM (inactive)
